Data as given in patent US7858644B2, “EP4 receptor antagonists” (Asterand UK Limited, priority 2003, dated 2010).
Where a name gives a salt, the structure may show the parent alone.

Key:
[1] = target: T1, human EP2 receptor (Homo sapiens, UniProt P43116); experiment: Binding ability to human EP2 receptor ([3H]PGE2 displacement); conditions: read-out: pKi EP2 (converted)
T1 construct: expressed in transfected cells
Description: (§1) Membranes were prepared from cells stably transfected with human EP receptor cDNA. In brief, cells were cultured to confluency, scraped from culture flasks, and centrifuged (800 g, 8 minutes, 4° C.). Cells were twice washed in ice cold homogenisation buffer containing 10 mMTris-HCl, 1 mM EDTA. 2Na, 250 mM sucrose, 1 mM PMSF, 0.3 mM indomethacin, pH 7.4, homogenised and re-centrifuged as before. The supernatant was stored on ice and pellets re-homogenised and re-spun. Supernatants were pooled and centrifuged at 40000 g, 10 minutes, 4° C. Resultant membrane pellets were stored at −80° C. until use.
(§2) For assay, membranes expressing human EP4, EP3, EP2 or EP1 receptors were incubated in Millipore (MHVBN45) plates containing assay buffer, radiolabelled [^3H]PGE2 and 0.1 to 10 000 nM concentrations of compounds. Incubations were performed at suitable temperatures and for suitable times to allow equilibrium to be reached. Non-specific binding was determined in the presence of 10 uM PGE2. Bound and free radiolabel was separated by vacuum manifold filtration using appropriate wash buffers, and bound radiolabel was determined by scintillation counting. Constituents of each of the buffers are included in table 1 below.
(§3) This approach follows that set out in Kenakin, T. P., Pharmacologic analysis of drug receptor interaction. Raven Press, New York, 2nd edition.

[2] = target: T2, human EP3 receptor (Homo sapiens, UniProt P43115); experiment: Binding ability to human EP3 receptor ([3H]PGE2 displacement); conditions: membranes from cells stably transfected with human EP receptor cDNA; [3H]PGE2 2.5 nM; Cheng-Prusoff from IC50; read-out: pKi EP3 (converted)
T2 construct: expressed in transfected cells
T2 sequence (P43115 1-390): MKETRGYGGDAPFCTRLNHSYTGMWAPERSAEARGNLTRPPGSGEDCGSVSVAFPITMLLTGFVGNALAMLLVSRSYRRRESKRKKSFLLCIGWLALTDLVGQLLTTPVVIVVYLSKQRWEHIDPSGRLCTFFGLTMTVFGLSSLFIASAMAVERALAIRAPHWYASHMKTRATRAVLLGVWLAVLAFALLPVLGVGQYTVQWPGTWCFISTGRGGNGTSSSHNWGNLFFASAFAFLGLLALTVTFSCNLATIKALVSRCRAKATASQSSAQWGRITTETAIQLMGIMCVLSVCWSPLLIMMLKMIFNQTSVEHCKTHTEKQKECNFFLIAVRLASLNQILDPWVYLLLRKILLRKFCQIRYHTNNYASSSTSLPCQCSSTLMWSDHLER
Description: as §1, §2, §3

T1 sequence (P43116 whole entry): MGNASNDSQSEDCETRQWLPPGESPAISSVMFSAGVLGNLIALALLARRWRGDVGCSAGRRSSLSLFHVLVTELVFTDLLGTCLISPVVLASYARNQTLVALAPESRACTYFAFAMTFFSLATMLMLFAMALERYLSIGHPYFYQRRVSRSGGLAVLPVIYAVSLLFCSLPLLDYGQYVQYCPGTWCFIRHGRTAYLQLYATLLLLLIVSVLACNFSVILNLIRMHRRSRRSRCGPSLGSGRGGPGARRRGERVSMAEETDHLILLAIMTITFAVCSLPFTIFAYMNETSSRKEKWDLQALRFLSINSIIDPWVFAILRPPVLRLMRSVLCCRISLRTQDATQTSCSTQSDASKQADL

Ki [1] | Ki [2] | Structure (SMILES)
> 3.16 µM | > 10 µM | COc1ccc(-c2ccc(OCc3cc(C(=O)NS(=O)(=O)c4ccccc4)oc3C)cc2)cc1 [Compound 5, N-[4-(4′-Methoxy-biphenyl-4-yloxymethyl)-5-methyl-furan-2-carbonyl]-benzenesulfonamide]
> 10 µM | > 10 µM | COc1ccc(-c2ccc(OCc3cc(C(=O)NS(=O)(=O)Cc4ccccc4)oc3C)cc2)cc1 [Compound 6, N-[4-(4′-Methoxy-biphenyl-4-yloxymethyl)-5-methyl-furan-2-carbonyl]-C-phenyl-methanesulfonamide]
> 10 µM | > 10 µM | COc1ccc(-c2ccc(OCc3cc(C(=O)NS(C)(=O)=O)oc3C)cc2)cc1 [Compound 7, N-[4-(4′-Methoxy-biphenyl-4-yloxymethyl)-5-methyl-furan-2-carbonyl]-methanesulfonamide]
> 10 µM | > 10 µM | CCCS(=O)(=O)NC(=O)c1cc(COc2ccc(-c3ccc(OC)cc3)cc2)c(C)o1 [Compound 8, Propane-1-sulfonic acid [4-(4′-methoxy-biphenyl-4-yloxymethyl)-5-methyl-furan-2-carbonyl]-amide]
> 3.16 µM | > 10 µM | COc1ccc(-c2ccc(OCc3cc(C(=O)NS(=O)(=O)c4cccs4)oc3C)cc2)cc1 [Compound 10, Thiophene-2-sulfonic acid [4-(4′-methoxy-biphenyl-4-yloxymethyl)-5-methyl-furan-2-carbonyl]-amide]
> 10 µM | > 10 µM | COc1ccc(-c2ccc(OCc3cc(C(=O)NS(=O)(=O)c4ccc(C)cn4)oc3C)cc2)cc1 [Compound 11, 5-Methyl-pyridyl-2-sulfonic acid [4-(4′-methoxy-biphenyl-4-yloxymethyl)-5-methyl-furan-2-carbonyl]-amide]
> 10 µM | > 10 µM | COc1ccc(-c2ccc(OCc3cc(C(=O)NS(=O)(=O)c4ccc(CN)cc4)oc3C)cc2)cc1 [Compound 12, 4-Aminomethyl-N-[4-(4′-methoxy-biphenyl-4-yloxymethyl)-5-methyl-furan-2-carbonyl]-benzenesulfonamide trifluoroacetate]
> 10 µM | > 10 µM | COc1ccc(-c2ccc(OCc3cc(C(=O)NS(=O)(=O)c4ccc(O)cc4)oc3C)cc2)cc1 [Compound 13, 4-Hydroxy-N-[4-(4′-methoxy-biphenyl-4-yloxymethyl)-5-methyl-furan-2-carbonyl]-benzenesulfonamide]
> 10 µM | > 10 µM | CC(=O)c1ccc(-c2ccc(OCc3cc(C(=O)NS(=O)(=O)c4ccccc4)oc3C)cc2)cc1 [Compound 22, N-[4-(4′-Acetyl-biphenyl-4-yloxymethyl)-5-methyl-furan-2-carbonyl]-benzenesulfonamide]

More lines, now with the values behind:

Structure (SMILES) | Ki [1] | Ki [2]
COc1ccc(-c2ccc(OCc3cc(C(=O)O)oc3C)cc2)cc1 [Compound 4, 4-(4′-Methoxy-biphenyl-4-yloxymethyl)-5-methyl-furan-2-carboxylic acid] | > 10 µM | > 10 µM
COc1ccc(-c2ccc(OCc3cc(C(=O)NS(=O)(=O)c4c(C)noc4C)oc3C)cc2)cc1 [Compound 9, 3,5-Dimethyl-isoxazole-4-sulfonic acid [4-(4′-methoxy-biphenyl-4-yloxymethyl)-5-methyl-furan-2-carbonyl]-amide] | > 10 µM | > 10 µM
Cc1oc(C(=O)NS(=O)(=O)c2ccccc2)cc1COc1ccc(-c2ccccc2)cc1 [Compound 19, N-[4-(Biphenyl-4-yloxymethyl)-5-methyl-furan-2-carbonyl]-benzenesulfonamide] | > 10 µM | > 10 µM
CC(=O)c1ccc(-c2ccc(OCc3cc(C(=O)O)oc3C)cc2)cc1 [Compound 21, 4-(4′-Acetyl-biphenyl-4-yloxymethyl)-5-methyl-furan-2-carboxylic acid] | > 10 µM | > 10 µM
Cc1oc(C(=O)O)cc1COc1ccc(-c2ccc(Cl)cc2)cc1 [Compound 27, 4-(4′-Chloro-biphenyl-4-yloxymethyl)-5-methyl-furan-2-carboxylic acid] | > 3.16 µM | > 10 µM
Cc1oc(C(=O)O)cc1COc1ccc(-c2ccc3c(c2)OCO3)cc1 [Compound 28, 4-(4-Benzo[1,3]dioxol-5-yl-phenoxymethyl)-5-methyl-furan-2-carboxylic acid] | > 10 µM | > 10 µM
Cc1oc(CCC(=O)O)cc1COc1ccc(-c2ccccc2)cc1 [Compound 37, 3-[4-(Biphenyl-4-yloxymethyl)-5-methyl-furan-2-yl]-propionic acid] | > 10 µM | > 10 µM
COc1ccc(-c2ccc(OCc3cc(C(=O)O)oc3C)cc2)nc1 [Compound 53, 4-[4-(5-Methoxy-pyridin-2-yl)-phenoxymethyl]-5-methyl-furan-2-carboxylic acid] | > 10 µM | > 10 µM
Cc1oc(C(=O)O)cc1COc1ccc(-c2ccc(C#N)cc2)cc1 [Compound 57, 4-(4′-Cyano-biphenyl-4-yloxymethyl)-5-methyl-furan-2-carboxylic acid] | > 10 µM | > 10 µM
COc1ccc(-c2ccc(OCc3cc(C(=O)NS(=O)(=O)CCCN4CCOCC4)oc3C)cc2)cc1 [Compound 59, 3-Morpholin-4-yl-propane-1-sulphonic acid [4-(4′-methoxy-biphenyl-4-yloxymethyl)-5-methyl-furan-2-carbonyl]-amide] | > 10 µM | > 10 µM
Cc1oc(C(=O)O)cc1CCOc1ccc(-c2ccccc2)cc1 [Compound 72, 4-[2-(Biphenyl-4-yloxy)-ethyl]-5-methyl-furan-2-carboxylic acid] | > 10 µM | > 10 µM
O=C(O)c1cc(COc2ccc(-c3ccccc3)cc2)co1 [Compound 77, 4-(Biphenyl-4-yloxymethyl)-furan-2-carboxylic acid] | > 10 µM | > 10 µM
CC(C)c1oc(C(=O)O)cc1COc1ccc(-c2ccccc2)cc1 [Compound 85, 4-(Biphenyl-4-yloxymethyl)-5-isopropyl-furan-2-carboxylic acid] | > 10 µM | > 10 µM
O=C(O)c1cc(COc2ccc(-c3ccccc3)cc2)c(C(F)(F)F)o1 [Compound 90, 4-(Biphenyl-4-yloxymethyl)-5-trifluoromethyl-furan-2-carboxylic acid] | > 10 µM | > 10 µM
COc1ccc(-c2ccc(OCc3cc(C(=O)O)oc3C)cc2)cc1OC [Compound 96, 4-(3′,4′-Dimethoxy-biphenyl-4-yloxymethyl)-5-methyl-furan-2-carboxylic acid] | > 10 µM | > 10 µM
Cc1oc(C(=O)O)cc1COc1ccc(-c2ccc(CO)cc2)cc1 [Compound 110, 4-(4′-Hydroxymethyl-biphenyl-4-yloxymethyl)-5-methyl-furan-2-carboxylic acid] | > 10 µM | > 10 µM
Cc1oc(C(=O)O)cc1COc1ccc(-c2ccc(OC(F)(F)F)cc2)cc1 [Compound 114, 5-Methyl-4-(4′-trifluoromethoxy-biphenyl-4-yloxymethyl)-furan-2-carboxylic acid] | > 10 µM | > 10 µM
COc1cccc(-c2ccc(OCc3cc(C(=O)O)oc3C)cc2)c1 [Compound 116, 4-(3′-Methoxy-biphenyl-4-yloxymethyl)-5-methyl-furan-2-carboxylic acid] | > 10 µM | > 10 µM
